Measurements taken from patent publication US8808692B2, “Compositions comprising immunoreactive reagents and saponins, and methods of use thereof” (CSL Limited, priority 2001, dated 2014).

Experiments:
[1] = cited from earlier work; for level of antibody response induced: mice, antigens bovine serum albumin and cytochrome b5; for IgG2a response to cytochrome b5: saponin doses of 20 μg
[2] = tested on: target cells (E.G7-OVA or MO4); assay: Enhancement of antibody mediated lysis in vitro (51Cr-labeled target cells); format: cell-based, mice; conditions: splenocytes incubated with 1 to 10 ug/ml QS-21 for 24 to 72 hours; monoclonal antibody to SIINFEKL/Class I MHC 1 to 10 ug/ml
Protocol: Murine splenocytes (effector cells) are generated from the spleens of naive 6-8week old mice. These effector cells are incubated with 1 to 10 ug/ml of QS-21 or appropriate amount of another immunomodulatory saponin for 24 to 72 hours. At the end of the incubation period, target cells (E.G7-OVA or MO4) are loaded with 51 Cr. Effector cells and labeled target cells are incubated at defined effector:target ratios in the presence and absence of monoclonal antibody to SIINFEKL (SEQ ID NO: 1)/Class I MHC (1 to 10 ug/ml) at […] for 30 to 60minutes. The lysis in the presence of QS-21 and monoclonal is compared to controls without QS-21, without monoclonal, or both.

[3] = tested on: MO4 tumor or EG7-OVA tumor; assay: Tumor challenge model; format: in vivo, C57B1/6 mice; conditions: QS-21 (10-20 ug) with monoclonal antibody vs monoclonal antibody alone; 30 to 60 day period
Protocol: C57B1/6 mice are inoculated by s.c. route in the flank with MO4 tumor (1 ×10^5) or EG7-OVA tumor. At 24 to 48 hours after inoculation, mice are injected by IP route with a monoclonal antibody to SIINFEKL (SEQ ID NO: 1)/Class I MHC , or by local SC route in the presence or absence of QS-21 (10 -20 ug). The antitumor effect of the QS-21/monoclonal antibody treatment is compared to that of monoclonal antibody treatment by monitoring the growth of the tumors over a 30 to 60 day period (measurement with calipers). Survival was determined, and significance with respect to time to death was assessed using Cox regression analysis. Mice were also observed daily for signs of toxicity including level of activity, ruffled fur, diarrhea, and general appearance. […] Models and methods for evaluation of the effects of saponins and antibodies, or other immunoreactive reagents are known in the art. (Wooldridge et al., Blood, 1997, 89 (8): 2994-2998, incorporated by reference herein in its entirety).

[4] = tested on: S. pneumonia or S. aureus; assay: Opsonophagocytosis assay with HL-60 effector cells; format: cell-based; conditions: HL-60 effector cells incubated with QS-21, at a given antibody titer
[5] = tested on: Fc α R, Fc gamma R1, Fc gamma RII or Fc gamma RIII; assay: Upregulation of Fc receptors (FACScan); format: cell-based; conditions: QS-21 for example 1-10 ug/ml
Protocol: Monocytes, natural killer cells, or polymorphonuclear cells are incubated in the presence or absence of QS-21 (for example 1-10 ug/ml). The trypsinized cells are incubated at 4° C. for 60 min with monoclonal antibodies specific to Fc α R, Fc gamma R1, Fc gamma RII or Fc gamma RIII. The cells are then incubated with an anti-mouse IgG FITC probe, washed, fixed in paraformaldehyde, and analyzed by FACScan.

[6] = tested on: macrophage cells; assay: Cytokine production in macrophage cells; format: cell-based
[7] = tested on: bone marrow derived dendritic cells; assay: Cytokine production in bone marrow derived dendritic cells; format: cell-based
[8] = melanoma patients; cited from earlier work
[9] = mouse, in vivo; cited from earlier work

Question: With QS-17 as the substance, how does the “level of antibody response induced” value [1] read?
Answer: comparable to other commonly used adjuvants

Question: What about the “IgG2a response to cytochrome b5” value [1] of the same substance?
Answer: stimulate IgG2a response

Question: With QS-18 as the substance, how does the “level of antibody response induced” value [1] read?
Answer: comparable to other commonly used adjuvants

Question: What about the “IgG2a response to cytochrome b5” value [1] of the same substance?
Answer: stimulate IgG2a response

Question: For QS-21, which “lysis due to QS-21/monoclonal over monoclonal alone” value [2] is on record?
Answer: enhanced lysis

Question: What about the tumor progression [3] of the same substance?
Answer: delay in tumor progression

Question: What about the opsonization of bacteria [4] of the same substance?
Answer: Improved opsonization

Question: What about the “Fc receptors on monocytes, natural killer cells, or polymorphonuclear cells” value [5] of the same substance?
Answer: Upregulation

Question: What about the IL-6 [6] of the same substance?
Answer: upregulation

Question: What about the MIP-1-alpha [6] of the same substance?
Answer: upregulation

Question: What about the TNF-alpha [6] of the same substance?
Answer: upregulation

Question: And the “production of II-12” value [7]?
Answer: decrease the production

Question: And the “production of IL-1” value [7]?
Answer: increase production

Question: What about the “production of MIP-1-alpha” value [7] of the same substance?
Answer: increase production

Question: What about the “production of MIP-1-beta” value [7] of the same substance?
Answer: decrease the production

Question: What about the “level of antibody response induced” value [1] of the same substance?
Answer: comparable to other commonly used adjuvants

Question: What about the “IgG2a response to cytochrome b5” value [1] of the same substance?
Answer: stimulate IgG2a response

Question: And the “serological response to MELIMMUNE-1” value [8]?
Answer: significantly increased

Question: What about the toxicity in mice [9] of the same substance?
Answer: least toxic
